One may read the EC50 as the concentration at which the effect is half-maximal.

T1 sequence (P25106 whole entry): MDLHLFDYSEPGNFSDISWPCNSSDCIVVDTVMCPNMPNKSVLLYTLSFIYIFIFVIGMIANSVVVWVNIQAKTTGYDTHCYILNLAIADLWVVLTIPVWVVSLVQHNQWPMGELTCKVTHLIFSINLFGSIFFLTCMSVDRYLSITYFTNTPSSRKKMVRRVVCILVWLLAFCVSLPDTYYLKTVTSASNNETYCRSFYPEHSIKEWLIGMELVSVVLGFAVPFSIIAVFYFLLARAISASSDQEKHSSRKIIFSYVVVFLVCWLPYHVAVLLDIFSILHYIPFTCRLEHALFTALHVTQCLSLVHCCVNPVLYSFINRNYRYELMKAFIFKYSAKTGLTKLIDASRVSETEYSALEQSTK

This experiment has as its target T1, CXCR7 (Homo sapiens, UniProt P25106).
T1 construct: host or cells: CHO-K1 (PathHunter CXCR7 b-arrestin cell line, stably transfected)
In words: PathHunter CHO-K1 CXCR7 b-arrestin assay (agonistic activity). The experiment is classed as cell-based. To be noted: PathHunter CHO-K1 CXCR7 b-arrestin cell line, 90 minutes at 37° C. On the procedure:
The […] receptor and CXCR7 agonistic activities of the compounds of formula (I) are determined in accordance with the following experimental method.
The assay is using the PathHunter™ CHO-K1 CXCR7 b-arrestin cell line from DiscoverX. The system is based on the Enzyme Fragment Complementation Technology. Two complementing fragments of the b-galactosidase enzyme are expressed within stably transfected cells. The larger portion of b-gal, termed EA for Enzyme Acceptor, is fused to the C-terminus of b-arrestin 2. The smaller fragment, termed ProLink™ tag, is fused to CXCR7 at the C-terminus. Upon activation, b-arrestin is recruited which forces the interaction of ProLink and EA, allowing complementation of the two fragments of b-gal and the formation of a functional enzyme which is capable of hydrolysing the substrate and generating a chemiluminescent signal.
CHO-K1 CXCR7 b-arrestin cells are detached from culture dishes with a cell dissociation buffer (Invitrogen, #13151-014) and collected in growing medium (F12HAMS 90% (v/v)/FCS 10% (v/v), Penicilin/streptomycin 1% (v/v)). 5000 cells per well (in 20 μl) are seeded in a 384 well plate (white-walled, clear bottom; BD Falcon #353274). The plate is incubated at 37° C./5% CO2 for 24 hours. Medium is then replaced by […] (Invitrogen #31985) for 3 to 4 hours. Test compounds are dissolved at 10 mM in DMSO and serially diluted in DMSO to 200× of the final concentration for dose response curves. Compounds are then diluted 1:33.3 in HBSS1X. 5 μl/well of HBSS1X/20 mM HEPES/0.2% BSA are added to the assay plate followed by addition of 5 μl/well of diluted compounds. CXCL12 (Peprotech #300-28A) may be used as a reference agonist. The plate is incubated for 90 minutes at 37° C. 12 μl of detection reagent (Path Hunter Detection Kit, DiscoveRx, #93-0001) is transferred to the assay plate and to the plate is incubated for 1 hour at room temperature. Luminescent signal is read in a microplate reader (FLUOstar Optima, bmg). The calculated EC50 values may fluctuate depending on the daily cellular assay performance. Fluctuations of this kind are known to those skilled in the art.
On to `O=C(Nc1cccc(CN2CCC(C(=O)NC3CCCCC3)CC2)n1)c1ccc(F)cc1` [Example 3.003, 1-[6-(4-Fluoro-benzoylamino)-pyridin-2-ylmethyl]-piperidine-4-carboxylic acid cyclohexylamide], for which the EC50 was 167 nM.

Take `O=C(Nc1cncc(CN2CCC(C(=O)NC3CCCCC3)CC2)c1)c1ccc(Cl)cc1` [Example 3.004, 1-[5-(4-Chloro-benzoylamino)-pyridin-3-ylmethyl]-piperidine-4-carboxylic acid cyclohexylamide]: the EC50 amounted to 36 nM.

Consider `O=C(Nc1cncc(CN2CCC(C(=O)NC3CCCCC3)CC2)c1)c1ccc(F)cc1` [Example 3.005, 1-[5-(4-Fluoro-benzoylamino)-pyridin-3-ylmethyl]-piperidine-4-carboxylic acid cyclohexylamide], for which the EC50 is 57 nM.

With `O=C(Nc1ccnc(CN2CCC(C(=O)NC3CCCCC3)CC2)c1)c1ccc(F)cc1` [Example 3.006, 1-[4-(4-Fluoro-benzoylamino)-pyridin-2-ylmethyl]-piperidine-4-carboxylic acid cyclohexylamide], the EC50 was determined as 56 nM.

In turn, `O=C(Nc1ccnc(CN2CCC(C(=O)NC3CCCCC3)CC2)c1)c1ccc(Cl)cc1` [Example 3.007, 1-[4-(4-Chloro-benzoylamino)-pyridin-2-ylmethyl]-piperidine-4-carboxylic acid cyclohexylamide] came in with an EC50 of 28 nM.

Compound `CC(C)(C)NC(=O)C1CCN(Cc2csc(NC(=O)c3ccc(F)cc3)c2)CC1` [Example 3.008, 1-[5-(4-Fluoro-benzoylamino)-thiophen-3-ylmethyl]-piperidine-4-carboxylic acid tert-butylamide] returned an EC50 of 3 nM.

On to `CC(C)(C)NC(=O)C1CCN(Cc2cc(NC(=O)c3ccc(F)cc3)cs2)CC1` [Example 3.009, 1-[4-(4-Fluoro-benzoylamino)-thiophen-2-ylmethyl]-piperidine-4-carboxylic acid tert-butylamide], for which a half-maximal response (EC50) required 4 nM.

Consider `CC(C)(C)NC(=O)C1CCN(Cc2csc(NC(=O)Cc3ccccc3Cl)c2)CC1` [Example 3.010, 1-{5-[2-(2-Chloro-phenyl)-acetylamino]-thiophen-3-ylmethyl}-piperidine-4-carboxylic acid tert-butylamide], for which the EC50 was found to be 41 nM.

In turn, `CC(C)(C)NC(=O)C1CCN(Cc2cc(NC(=O)Cc3ccccc3Cl)cs2)CC1` [Example 3.011, 1-{4-[2-(2-Chloro-phenyl)-acetylamino]-thiophen-2-ylmethyl}-piperidine-4-carboxylic acid tert-butylamide] yielded an EC50 of 28 nM.

As for `Cc1cncc(C(=O)Nc2cc(CN3CCC(C(=O)NC(C)(C)C)CC3)cs2)c1` [Example 3.012, N-[4-(4-tert-Butylcarbamoyl-piperidin-1-ylmethyl)-thiophen-2-yl]-5-methyl-nicotinamide], it took 44 nM to reach a half-maximal effect (EC50).

For the compound `Cc1cncc(C(=O)Nc2csc(CN3CCC(C(=O)NC(C)(C)C)CC3)c2)c1` [Example 3.013, N-[5-(4-tert-Butylcarbamoyl-piperidin-1-ylmethyl)-thiophen-3-yl]-5-methyl-nicotinamide], the EC50 stood at 13 nM.

Take `Cc1cncc(C(=O)Nc2cccc(CN3CCC(F)(C(=O)NC4CCCCC4)CC3)c2)c1` [Example 4.001, N-[3-(4-Cyclohexylcarbamoyl-4-fluoro-piperidin-1-ylmethyl)-phenyl]-5-methyl-nicotinamide]: a half-maximal response (EC50) required 46 nM.

The compound `Cc1cncc(C(=O)Nc2cccc(CN3CCC(F)(C(=O)NC(C)(C)C)CC3)c2)c1` [Example 4.002, N-[3-(4-tert-Butylcarbamoyl-4-fluoro-piperidin-1-ylmethyl)-phenyl]-5-methyl-nicotinamide] came in with an EC50 of 16 nM.

In the case of `Cc1cncc(C(=O)Nc2cccc(CN3CCC(C)(C(=O)NC4CCCCC4)CC3)c2)c1` [Example 4.003, N-[3-(4-Cyclohexylcarbamoyl-4-methyl-piperidin-1-ylmethyl)-phenyl]-5-methyl-nicotinamide], the EC50 turned out to be 197 nM.

In turn, `Cc1cncc(C(=O)Nc2cccc(CN3CCC(C)(C(=O)NC(C)(C)C)CC3)c2)c1` [Example 4.004, N-[3-(4-tert-Butylcarbamoyl-4-methyl-piperidin-1-ylmethyl)-phenyl]-5-methyl-nicotinamide] returned an EC50 of 59 nM.

In turn, `O=C(Nc1cccc(CN2CCC(C(=O)NC3CCCCC3)CC2)c1)c1ccc(F)c[n+]1[O-]` [Example 4.005, 5-Fluoro-1-oxy-pyridine-2-carboxylic acid [3-(4-cyclohexylcarbamoyl-piperidin-1-ylmethyl)-phenyl]-amide] returned an EC50 of 4 nM.

`O=C(Nc1cccc(CN2CCC(C(=O)NC3CCCC3)CC2)c1)c1ccc(F)c[n+]1[O-]` [Example 4.006, 5-Fluoro-1-oxy-pyridine-2-carboxylic acid [3-(4-cyclopentylcarbamoyl-piperidin-1-ylmethyl)-phenyl]-amide] had an EC50 of 1 nM.

On to `CC(C)(C)NC(=O)C1CCN(Cc2cccc(NC(=O)c3ccc(F)c[n+]3[O-])c2)CC1` [Example 4.007, 5-Fluoro-1-oxy-pyridine-2-carboxylic acid [3-(4-tert-butylcarbamoyl-piperidin-1-ylmethyl)-phenyl]-amide], for which it took 3 nM to reach a half-maximal effect (EC50).

As to `O=C(Nc1cccc(CN2CCC(F)(C(=O)NC3CCCCC3)CC2)c1)c1cccc(C(F)(F)F)n1` [Example 4.008, 6-Trifluoromethyl-pyridine-2-carboxylic acid [3-(4-cyclohexylcarbamoyl-4-fluoro-piperidin-1-ylmethyl)-phenyl]-amide], it took 71 nM to reach a half-maximal effect (EC50).

In turn, `CC(C)(C)NC(=O)C1(F)CCN(Cc2cccc(NC(=O)c3cccc(C(F)(F)F)n3)c2)CC1` [Example 4.009, 6-Trifluoromethyl-pyridine-2-carboxylic acid [3-(4-tert-butylcarbamoyl-4-fluoro-piperidin-1-ylmethyl)-phenyl]-amide] gave an EC50 of 20 nM.

Turning to `CC1(C(=O)NC2CCCCC2)CCN(Cc2cccc(NC(=O)c3cccc(C(F)(F)F)n3)c2)CC1` [Example 4.010, 6-Trifluoromethyl-pyridine-2-carboxylic acid [3-(4-cyclohexylcarbamoyl-4-methyl-piperidin-1-ylmethyl)-phenyl]-amide], the EC50 was 57 nM.

`CC(C)(C)NC(=O)C1(C)CCN(Cc2cccc(NC(=O)c3cccc(C(F)(F)F)n3)c2)CC1` [Example 4.011, 6-Trifluoromethyl-pyridine-2-carboxylic acid [3-(4-tert-butylcarbamoyl-4-methyl-piperidin-1-ylmethyl)-phenyl]-amide] had an EC50 of 13 nM.

For the compound `COc1cncc(C(=O)Nc2cccc(CN3CCC(C(=O)NC4CCCCC4)CC3)c2)c1` [Example 4.012, N-[3-(4-Cyclohexylcarbamoyl-piperidin-1-ylmethyl)-phenyl]-5-methoxy-nicotinamide], a half-maximal effect (EC50) was put at 10 nM.

The compound `COc1cncc(C(=O)Nc2cccc(CN3CCC(C(=O)NC4CCCC4)CC3)c2)c1` [Example 4.013, N-[3-(4-Cyclopentylcarbamoyl-piperidin-1-ylmethyl)-phenyl]-5-methoxy-nicotinamide] had an EC50 of 9 nM.

As for `COc1cncc(C(=O)Nc2cccc(CN3CCC(C(=O)N(C)CC(C)C)CC3)c2)c1` [Example 4.015, N-{3-[4-(Isobutyl-methyl-carbamoyl)-piperidin-1-ylmethyl]-phenyl}-5-methoxy-nicotinamide], the midpoint of the response, the EC50, lay at 19 nM.

`O=C(Nc1ccc(F)c(CN2CCC(C(=O)NC3CCCCC3)CC2)c1)c1cccc(C(F)(F)F)n1` [Example 4.016, 6-Trifluoromethyl-pyridine-2-carboxylic acid [3-(4-cyclohexylcarbamoyl-piperidin-1-ylmethyl)-4-fluoro-phenyl]-amide] had an EC50 of 3 nM.

The compound `CC(C)(C)NC(=O)C1CCN(Cc2cc(NC(=O)c3cccc(C(F)(F)F)n3)ccc2F)CC1` [Example 4.017, 6-Trifluoromethyl-pyridine-2-carboxylic acid [3-(4-tert-butylcarbamoyl-piperidin-1-ylmethyl)-4-fluoro-phenyl]-amide] returned an EC50 of 2 nM.

Consider `Cc1cncc(C(=O)Nc2ccc(F)c(CN3CCC(C(=O)NC4CCCCC4)CC3)c2)c1` [Example 4.018, N-[3-(4-Cyclohexylcarbamoyl-piperidin-1-ylmethyl)-4-fluoro-phenyl]-5-methyl-nicotinamide], for which the EC50 worked out at 11 nM.

`Cc1cncc(C(=O)Nc2ccc(F)c(CN3CCC(C(=O)NC(C)(C)C)CC3)c2)c1` [Example 4.019, N-[3-(4-tert-Butylcarbamoyl-piperidin-1-ylmethyl)-4-fluoro-phenyl]-5-methyl-nicotinamide] registered a half-maximal effective concentration (EC50) of 8 nM.
